Reference: patent publication US20060069132A1, “Azolecarboxamide herbicides” (priority 2004, published 2006)

Assays:
[1] = test system: pigweed; test: Test B pre-/postemergence herbicide test; format: in vivo, Amaranthus retroflexus; conditions: for Pigweed plant response rating: postemergence, visual rating, scale 0 (no effect) to 100 (complete control)
How it was run: (§1)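 Visual rating, 0 (no effect) to 100 (complete control), versus untreated controls after 13–15 d in greenhouse. Pre- and postemergence applications (postemergence plants 2–18 cm, 1–4 leaves); flooded paddy arm at 2-leaf stage. Compounds in non-phytotoxic solvent plus surfactant.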

[2] = test system: giant foxtail; test: Test A pre-/postemergence herbicide test; format: in vivo, Setaria faberi
How it was run: (§2)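 Sandy loam soil given preemergence directed spray; plants at 2 to 10 cm, one- to two-leaf stage, sprayed to runoff postemergence, compounds in non-phytotoxic solvent with surfactant. Injury rated visually versus untreated controls after about ten greenhouse days, 0 (no effect) to 100 (complete control); dash means not tested.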

[3] = test system: barnyardgrass; test: Test B flooded paddy test; format: in vivo, Echinochloa crus-galli; conditions: 1000 g ai/ha, visual rating, scale 0 to 100 (0 no effect, 100 complete control), 13 to 15 days
How it was run: (§3)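 Paddy species grown to the 2-leaf stage under flooding; blackgrass sprayed postemergence at 2–18 cm (1- to 4-leaf stage). Plants kept in a greenhouse for 13 to 15 days, then visually rated against controls on 0 (no effect) to 100 (complete control).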

[4] = test system: barnyardgrass; test: Test B pre-/postemergence herbicide test; format: in vivo, Echinochloa crus-galli; conditions: for Barnyardgrass plant response rating: postemergence, visual rating, scale 0 (no effect) to 100 (complete control)
How it was run: (§4)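 Test chemicals in a non-phytotoxic solvent mixture with surfactant were applied preemergence to seeded species and postemergence to plants 2-18 cm tall (1- to 4-leaf stage); rice and barnyardgrass were also tested in a flooded paddy at the 2-leaf stage. Visual rating versus controls after 13-15 days in greenhouse, scale 0 (no effect) to 100 (complete control).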

[5] = test system: wild oat; test: Test B postemergence herbicide test; format: in vivo, Avena fatua; conditions: postemergence, visual rating, scale 0 (no effect) to 100 (complete control)
How it was run: (§5)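 Each value is a visual 0–100 response rating taken against controls 13 to 15 days after treatment in the greenhouse. Plants received formulated chemical postemergence at the 1- to 4-leaf stage or, in flooded paddy, at the 2-leaf stage.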

[6] = test system: barnyardgrass; test: Test A pre-/postemergence herbicide test; format: in vivo, Echinochloa crus-galli
How it was run: as §2

[7] = test system: velvetleaf; test: Test A pre-/postemergence herbicide test; format: in vivo, Abutilon theophrasti
How it was run: as §2

[8] = test system: morningglory; test: Test A pre-/postemergence herbicide test; format: in vivo, Ipomoea spp.
How it was run: as §2

[9] = test system: small flower umbrella sedge; test: Test B flooded paddy test; format: in vivo, Cyperus difformis; conditions: 1000 g ai/ha, visual rating, scale 0 to 100 (0 no effect, 100 complete control), 13 to 15 days
How it was run: as §3

[10] = test system: ducksalad; test: Test B flooded paddy test; format: in vivo, Heteranthera limosa; conditions: 1000 g ai/ha, visual rating, scale 0 to 100 (0 no effect, 100 complete control), 13 to 15 days
How it was run: as §3

[11] = test system: blackgrass; test: Test B postemergence herbicide test; format: in vivo, Alopecurus myosuroides; conditions: postemergence, visual rating, scale 0 (no effect) to 100 (complete control)
How it was run: as §3

[12] = test system: wheat; test: Test B postemergence herbicide test; format: in vivo, Triticum aestivum; set-up: key to Wheat plant response rating: 0 = no effect, 100 = complete control; conditions: postemergence, visual rating, scale 0 (no effect) to 100 (complete control)
How it was run: as §5

[13] = test system: giant foxtail; test: Test B pre-/postemergence herbicide test; format: in vivo, Setaria faberi; conditions: for Foxtail, Giant plant response rating: postemergence, visual rating, scale 0 (no effect) to 100 (complete control)
How it was run: as §1

[14] = test system: morningglory; test: Test B pre-/postemergence herbicide test; format: in vivo, Ipomoea coccinea; conditions: for Morningglory plant response rating: postemergence, visual rating, scale 0 (no effect) to 100 (complete control)
How it was run: as §4

[15] = test system: large crabgrass; test: Test B pre-/postemergence herbicide test; format: in vivo, Digitaria sanguinalis; conditions: for Crabgrass, Large plant response rating: postemergence, visual rating, scale 0 (no effect) to 100 (complete control)
How it was run: as §1

[16] = test system: velvetleaf; test: Test B pre-/postemergence herbicide test; format: in vivo, Abutilon theophrasti; conditions: for Velvetleaf plant response rating: postemergence, visual rating, scale 0 (no effect) to 100 (complete control)
How it was run: as §1

[17] = test system: Surinam grass; test: Test B pre-/postemergence herbicide test; format: in vivo, Urochloa decumbens; conditions: for Surinam Grass plant response rating: postemergence, visual rating, scale 0 (no effect) to 100 (complete control)
How it was run: as §1

[18] = test system: cocklebur; test: Test B pre-/postemergence herbicide test; format: in vivo, Xanthium strumarium; conditions: for Cocklebur plant response rating: postemergence, visual rating, scale 0 (no effect) to 100 (complete control)
How it was run: as §4

[19] = test system: corn; test: Test B pre-/postemergence herbicide test; format: in vivo, Zea mays; conditions: for Corn plant response rating: postemergence, visual rating, scale 0 (no effect) to 100 (complete control)
How it was run: as §1

[20] = test system: large crabgrass; test: Test A pre-/postemergence herbicide test; format: in vivo, Digitaria sanguinalis
How it was run: as §2

[21] = test system: redroot pigweed; test: Test A pre-/postemergence herbicide test; format: in vivo, Amaranthus retroflexus
How it was run: as §2

[22] = test system: rice; test: Test B flooded paddy test; format: in vivo, Oryza sativa; conditions: 1000 g ai/ha, visual rating, scale 0 to 100 (0 no effect, 100 complete control), 13 to 15 days
How it was run: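 Read-out: visual comparison with controls, scored 0 to 100, where 100 means complete control and 0 no effect. Formulated chemicals were applied postemergence to plants 2–18 cm tall (1- to 4-leaf), or to flooded-paddy plants at the 2-leaf stage, then held 13 to 15 days under glass.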

[23] = test system: lambsquarters; test: Test B pre-/postemergence herbicide test; format: in vivo, Chenopodium album; conditions: for Lambsquarters plant response rating: postemergence, visual rating, scale 0 (no effect) to 100 (complete control)
How it was run: as §1

[24] = 125 g ai/ha, 0 = no effect, 100 = complete control, preemergence
[25] = 500 g ai/ha, visual rating 0-100, 0 no effect, 100 complete control, preemergence
[26] = Postemergence, 500 g ai/ha, 0 to 100 scale, 0 no effect, 100 complete control
[27] = Postemergence, 2000 g ai/ha, 0 to 100 scale, 0 no effect, 100 complete control
[28] = Preemergence, 2000 g ai/ha, visual rating, 0 to 100 scale (0 no effect, 100 complete control)
[29] = preemergence, 500 g ai/ha, visual injury, 0 to 100 scale (0 no effect, 100 complete control)

Compound: CC(=NO)c1cccc(NC(=O)c2cn(C(C)C)nc2C)c1 [Compound 180]
- Pigweed plant response rating (0 to 100 scale) [1, 24]: 0
- Plant response rating, Pigweed [1, 25]: 0
- Pigweed plant response rating ([1]; 125 g ai/ha): 0
- Pigweed plant response rating ([1]; 500 g ai/ha): 0
- Foxtail, Giant plant response rating [2, 26]: 15
- Plant response rating, Foxtail, Giant [2, 27]: 20
- Foxtail, Giant plant response rating [2, 28]: 10
- Foxtail, Giant plant response rating [2, 29]: 0
- Barnyardgrass plant response rating [3]: 20
- Barnyardgrass plant response rating (0 to 100 scale) [4, 24]: 0
- Plant response rating, Barnyardgrass [4, 25]: 0
- Barnyardgrass plant response rating ([4]; 125 g ai/ha): 0
- Barnyardgrass plant response rating ([4]; 500 g ai/ha): 0
- Oat, Wild plant response rating ([5]; 125 g ai/ha): 0
- Oat, Wild plant response rating ([5]; 500 g ai/ha): 0
- Barnyardgrass plant response rating [6, 26]: 20
- Plant response rating, Barnyardgrass [6, 27]: 30
- Barnyardgrass plant response rating [6, 28]: 0
- Barnyardgrass plant response rating [6, 29]: 0
- Velvetleaf plant response rating [7, 26]: 10
- Plant response rating, Velvetleaf [7, 27]: 15
- Velvetleaf plant response rating [7, 28]: 15
- Velvetleaf plant response rating [7, 29]: 0
- Morningglory plant response rating [8, 26]: 10
- Plant response rating, Morningglory [8, 27]: 15
- Morningglory plant response rating [8, 28]: 10
- Morningglory plant response rating [8, 29]: 0
- Sedge, Umbrella plant response rating [9]: 0
- Ducksalad plant response rating [10]: 20
- Blackgrass plant response rating ([11]; 125 g ai/ha): 0
- Blackgrass plant response rating ([11]; 500 g ai/ha): 0
- Wheat plant response rating ([12]; 125 g ai/ha): 0
- Wheat plant response rating ([12]; 500 g ai/ha): 0
- Foxtail, Giant plant response rating (0 to 100 scale) [13, 24]: 0
- Plant response rating, Foxtail, Giant [13, 25]: 0
- Foxtail, Giant plant response rating ([13]; 125 g ai/ha): 0
- Foxtail, Giant plant response rating ([13]; 500 g ai/ha): 0
- Morningglory plant response rating (0 to 100 scale) [14, 24]: 0
- Plant response rating, Morningglory [14, 25]: 0
- Morningglory plant response rating ([14]; 125 g ai/ha): 0
- Morningglory plant response rating ([14]; 500 g ai/ha): 0
- Crabgrass, Large plant response rating (0 to 100 scale) [15, 24]: 0
- Plant response rating, Crabgrass, Large [15, 25]: 0
- Crabgrass, Large plant response rating ([15]; 125 g ai/ha): 0
- Crabgrass, Large plant response rating ([15]; 500 g ai/ha): 0
- Velvetleaf plant response rating (0 to 100 scale) [16, 24]: 0
- Plant response rating, Velvetleaf [16, 25]: 0
- Velvetleaf plant response rating ([16]; 125 g ai/ha): 0
- Velvetleaf plant response rating ([16]; 500 g ai/ha): 0
- Surinam Grass plant response rating (0 to 100 scale) [17, 24]: 0
- Plant response rating, Surinam Grass [17, 25]: 0
- Surinam Grass plant response rating ([17]; 125 g ai/ha): 0
- Surinam Grass plant response rating ([17]; 500 g ai/ha): 0
- Cocklebur plant response rating (0 to 100 scale) [18, 24]: 0
- Plant response rating, Cocklebur [18, 25]: 0
- Cocklebur plant response rating ([18]; 125 g ai/ha): 0
- Cocklebur plant response rating ([18]; 500 g ai/ha): 0
- Corn plant response rating (0 to 100 scale) [19, 24]: 0
- Plant response rating, Corn [19, 25]: 0
- Corn plant response rating ([19]; 125 g ai/ha): 0
- Corn plant response rating ([19]; 500 g ai/ha): 0
- Crabgrass, Large plant response rating [20, 26]: 20
- Plant response rating, Crabgrass, Large [20, 27]: 35
- Crabgrass, Large plant response rating [20, 28]: 50
- Crabgrass, Large plant response rating [20, 29]: 10
- Pigweed plant response rating [21, 26]: 30
- Plant response rating, Pigweed [21, 27]: 95
- Pigweed plant response rating [21, 28]: 90
- Pigweed plant response rating [21, 29]: 0
- Rice plant response rating [22]: 0
- Lambsquarters plant response rating (0 to 100 scale) [23, 24]: 0
- Plant response rating, Lambsquarters [23, 25]: 0
- Lambsquarters plant response rating ([23]; 125 g ai/ha): 0
- Lambsquarters plant response rating ([23]; 500 g ai/ha): 0
